Laboratory results: patent US6673785B1, “Use of hepoxilins or hepoxilin analogs as antidiabetics, antiinflammatory agents” (priority 1999, dated 2004)

What was measured:
human neutrophils [1] = experiment: HxA3-induced rise in intracellular calcium in neutrophils with internalised GTP-γ-S or GTP; format: cell-based; details: for effect of internalised nucleotide on HxA3-induced rise in intracellular calcium: approximate cytosolic concentration 21 μM
Source text: (§1) For measurement of intracellular calcium, the cells were centrifuged and loaded with INDO-1 AM (see Methods for details). The change in intracellular calcium was monitored with fluorescence spectrophotometer at 331 nm excitation and 410 nm emission. […] Data represents the Mean±SD (n=4 separate experiments).
(§2) The method of Jaconi et al (1993, J. Biol. Chem. 268, 26077-26078] was employed with modifications to incorporate GTP-γ-S or GTP into human neutrophils. Specifically, 20×10^6 cells were incubated in 100 μl of sucrose-rich (500 mM) buffer containing in mM: NaCl 140, KCl 5, MgCl2 1, Hepes sodium-free 10, glucose 10, and EGTA 1, 10% polyetylene glycol 1000, pH 7.3. The buffer either contained nothing else (control) or GTP-γ-S (50 mM) or GTP (50 mM). The cells were incubated for 15 min at 37° C. to allow fluid-phase endocytosis of extracellular material. The cells were hypotonically shocked during 2 min at 37° C. by the addition of 1 mL of hypotonic medium made up of 1 part normal medium and 0.66 parts of water [Hallet & Campbell. 1983, Immunology, 50, 487-495]. The cells were then centrifuged at 900 rpm×5 min and resuspended in 2 mL of calcium-free assay medium for the binding studies or in RPMI 1640 for the calcium measurements. […] The particulate matter was sedimented through centrifugation and fluorescence in the supernatant was measured in a fluorescence spectrophotometer and 430 nm excitation, 540 nm emission using dilutions of the dye as standard. While unshocked neutrophils contained virtually no fluorescence above background, the shocked cells contained approximately 24 ng dye/4×10^6 cells. […]
(§3) Intracellular free calcium concentrations were monitored continuously in a Perkin-Elmer fluorescence spectrophotometer (Model 65040) using Indo-I AM-loaded neutrophils. […]
(§4) Unloaded dye was removed by centrifugation and the cells were resuspended in fresh RPMI 1640(1 mL). […] The resulting effect was recorded on a chart recorder (LKB model 2210, Pharmacia, Sweden) at 1 cm/min chart speed for the next 5 min (FIG. 20).

[2] = tested on: hepoxilin binding protein in neutrophils; experiment: Binding of [3H]-HxA3 (8S) to neutrophils with internalised GTP-γ-S or GTP; parameters: species or system human; details: approximate cytosolic concentration 21 μM
Source text: as §1
as §2, with “487-495].” for “487-495]. The cells were then centrifuged at 900 rpm×5 min and resuspended in 2 mL of calcium-free assay medium for the binding studies or in RPMI 1640 for the calcium measurements.”, “standard.” for “standard. While unshocked neutrophils contained virtually no fluorescence above background, the shocked cells contained approximately 24 ng dye/4×10^6 cells.”

human neutrophils [3] = experiment: Rise in intracellular calcium in INDO-1AM loaded neutrophil suspensions, normal vs Type 1 diabetic; format: cell-based
Source text: It was previously reported that the native HX cause a rise in intracellular calcium in suspensions of human neutrophils. […] In view of the findings reported above on alterations in the hepoxilin binding protein in diabetes, it was investigated whether the response to varied amounts of hepoxilin in terms of calcium release was altered in Type 1 diabetic neutrophils. This involved measurement of the rise in intracellular calcium in INDO-1AM loaded neutrophil suspensions spectrofluorometrically after addition of HxA3.
Normal and diabetic neutrophils were compared to 4 concentrations of HxA3, i.e. 100, 200, 500 and 1000 ng added in 1 μl DM50 to 2×10^6 cells/ml. […] Additional data was obtained by administering 1000 ng of hepoxilin five minutes after the first test. Previous results with normal neutrophils have shown that the response to a second addition of hepoxilin is blunted depending on the extent of calcium rise in the first test. […]
as §3, §4

[4] = tested on: bleomycin-induced lung fibrosis; experiment: Bleomycin-induced lung injury mouse model; format: in vivo; details: for inhibition of bleomycin-evoked lung fibrosis, relative potency: 200 μg/mouse bleomycin, various concentrations
Experimental: Mice were divided into 7 groups, each containing 5 animals. All groups were administered i.p. saline+7% ethanol as vehicle. Group 1 received only vehicle. Groups 2-7 received intratracheal bleomycin. Bleomycin is an antibiotic having antineoplastic activity. It is used clinically to treat malignancies such as lymphoma and testicular cancer. However, it has several side effects such as causing lung fibrosis characterized by diffuse alveolar hemorrhage and marked accumulation of inflammatory cells and an increase in collagen synthesis. Additionally, Group 3 received Trolox antioxidant, Group 4 received H1, Group 5 received H2, Group 6 received H3, and Group 7 received H4. All hepoxilins were dissolved in 7 μl ethanol and diluted to 100 μl saline for i.p. administration. All compounds were administered daily at the dose of 100 μg/20 g (5000 μg/kg) mouse for 8 days. Lungs from all animals were perfused and fixed for histology. […] As in section B1 above, the effective concentration of the drugs is unknown due to the still undetermined uptake and distribution in the body. The present study served as an indicator of biological activity in vivo. The study was also conducted using saline or 200 μg/mouse bleomycin. In these studies the hepoxilin analogs H1 and H2 were administered in various concentrations (FIGS. 14A-14E). […] Lung fibrosis was associated with increased collagen synthesis (FIGS. 15A, 15B). […] Collagen staining was done using sirius red and fast green.

[5] = tested on: bleomycin-evoked vascular permeability; experiment: Bleomycin-evoked skin vascular permeability (Evans Blue); format: in vivo; details: 100 ng intradermally, bleomycin 12 μg
Experimental: H1 and 2 blocked the bleomycin (12 μg)—evoked vascular permeability at 100 ng intradermally. (FIGS. 18 and 19). Vascular permeability was measured using Evans Blue I.V. Hepoxilin analogs were intradermally applied and within 30 minutes, a formamide extraction of punched skin was done. Extraction and absorbance was read at 620 nm.

Compound: Nc1nc2c(ncn2[C@@H]2O[C@H](COP(=O)(O)OP(=O)(O)OP(O)(O)=S)[C@@H](O)[C@H]2O)c(=O)[nH]1 [GTP-γ-S]
- effect of internalised nucleotide on HxA3-induced rise in intracellular calcium (human neutrophils [1]): inhibition
- effect of internalised nucleotide on binding of [3H]-HxA3 [2]: inhibition

Compound: Nc1nc2c(ncn2[C@@H]2O[C@H](COP(=O)(O)OP(=O)(O)OP(=O)(O)O)[C@@H](O)[C@H]2O)c(=O)[nH]1 [GTP]
- effect of internalised nucleotide on HxA3-induced rise in intracellular calcium (human neutrophils [1]): no significant change

Compound: CCCCC/C=C\C[C@@H]1O[C@H]1/C=C/C(O)C/C=C\CCCC(=O)O (stereo partly drawn) [HxA3, 8(S,R)-hydroxy-11(S),12(S)-epoxy-eicosa-5Z, 9E, 14Z-trienoic acid]
- change in intracellular calcium (human neutrophils [1]; 2×10^6 cells in 1 mL calcium-free buffer, 37° C.): rapid rise in intracellular calcium
- calcium response to second addition, diabetic vs normal neutrophils (human neutrophils [3]; 1000 ng five minutes after the first test): more inhibition
- rise in intracellular free calcium, diabetic vs normal neutrophils (human neutrophils [3]; 100, 200, 500 and 1000 ng in 1 μl to 2×10^6 cells/ml): diabetic neutrophils are more responsive

Compound: CCCCC/C=C\CC1CC1/C=C/[C@@H](O)C/C=C\CCCC(=O)OC (stereo partly drawn) [H1, 8(S)-hydroxy-11 ,12-cyclopropyl-eicosa-5Z, 10E, 14Z-trienoic acid methyl ester]
- inhibition of bleomycin-evoked lung fibrosis, relative potency [4]: most potent
- dose dependence of activity against lung fibrosis ([4]; 400 μg/kg, 2 mg/kg, 4 mg/kg): dose dependent
- potency against lung fibrosis compared with Amifostine and Trolox ([4]; Amifostine 200 mg/kg, Trolox 30 mg/kg): more potent than Amifostine (200 mg/kg) or Trolox (30 mg/kg)
- threshold activity against lung fibrosis ([4]; i.p.): 400 µg/kg
- bleomycin-evoked vascular permeability [5]: blocked

Compound: CCCCC/C=C\CC1CC1/C=C/[C@H](O)C/C=C\CCCC(=O)OC (stereo partly drawn) [H2, 8(R)hydroxy-11,12-cyclopropyl-eicosa-5Z, 10E, 14Z-trienoic acid methyl ester]
- inhibition of bleomycin-evoked lung fibrosis, relative potency [4]: most potent
- bleomycin-evoked vascular permeability [5]: blocked
